One data set concerns HeLa cells. It counts as cell-based. Particulars: up to 100 µM, n = 3/group. On the procedure:
(§1) HeLa and HEK293-T cells were cultured in DMEM (Dulbecco’s Modified Eagle Medium, Gibco®, USA) containing 10% fetal bovine serum (complete medium), penicillin and streptomycin (Gibco®, USA) at 37 °C and in presence of 5% of CO2. For cell counting, single cell suspension of HeLa and HEK293-T cells were rinsed with PBS and treated with 0.4% Trypan blue in PBS for 90 s. Excess dye was removed, and the cells were washed twice with PBS before counting. For a control of 100% permeabilized cells they were treated with 50% ethanol for 1 min and then stained as described above. In all of the experiments cellular viability was greater than 98% (data not shown). The MTT (3-(4,5-dimethylthiazol-2-yl)-2,5-diphenyltetrazolium bromide) tetrazolium reduction assays were conducted in a 96-well format. The optical density was measured at 570 nm using a SpectraMax M2 (Molecular Devices, Sunnyvale, CA, USA). Three independent experiments were conducted in triplicates for each treatment.

Another data set deals with HEK293T cells. Format: cell-based. Particulars: up to 100 µM, n = 3/group. On the procedure: as §1
Another data set relates to C57BL/6J mice. Briefly: Tetrad cannabinoid tests (catalepsy, tail temperature, locomotor activity, hot plate). It counts as in vivo. Particulars: n = 6/group. On the procedure: C57BL/6J mice were treated i.p. with Pep19 (0.1 or 1 mg/kg), the CB1R agonist WIN55,212-2 (5 mg/kg) or vehicle (n = 6 per group) and evaluated in the tetrad cannabinoid tests. Another group of animals received Pep19 (0.1 or 1 mg/kg) or saline i.p. for 10 days, once a day. In the last day of treatment the animals were subjected to the tetrad cannabinoid tests 30 minutes after the i.p. administration. The CB1 agonist WIN55,212-2 (5 mg/kg) was administrated i.p. 30 minutes before the experiments as a positive control (n = 6 per group).
It was assayed by the bar test[40], 30 min after drug administration. Briefly, each mouse was placed on a bar oriented parallel to and approximately 4 cm above the bench surface. Cataleptic behavior was defined as the time the animal remained motionless holding on to the bar; cutoff = 300 s[41].
It was determined by using a thermal probe (Thermocom®, Nashua, NH 03062, EUA) positioned 50 cm of the animal. The mean of five pictures of five different tail regions was compared between a basal evaluation and another observation 35 min after drug administration.
It was determined by an open field test, in which a mouse was placed in a circular cage (40 cm diameter), 37 min after drug administration. The distance traveled by the animal was recorded for 10 min by the software ANY-MAZE (Stoelting).
The mouse was placed on a heated plate at 56 °C. An experimenter measured the time it took for the mouse to lick the paws or jump off of the hot plate; cutoff = 30 s[42]. The variation between a basal evaluation and another one taken 45 min after drug administration was defined as the result.

The subject of data set [1] is Male Wistar rats. Briefly: Forced swim test. Particulars: first 5 min of the swim test, n = 6/group (Pep19), n = 8–10/group (rimonabant). It counts as in vivo. The procedure: The forced swim test was based on previous designs. Male Wistar rats were placed in a cylindrical plexiglass tank (50 cm high and 30 cm diameter) filled with water (19 °C) up to a level of 25 cm from the bottom. The animal’s behavior during the first 5 min of the swim test was scored by a trained observer and the following measures were taken: (1) time spent swimming, defined as movements of all four limbs, swimming around the tank or diving and (2) time spent floating, defined as the time the animal remained immobile with only occasional slight movements to keep the body balanced and the nose above the water.

The next data set has as its target T1, CB1R (Mus musculus, UniProt P47746).
T1 construct: Membranes were prepared from 3T3-L1 cells endogenously expressing CB1R; endogenous in cells; host or cells: 3T3-L1 cells (membranes)
Briefly: Displacement of [3H]SR141716A binding, membranes of 3T3-L1 cells. Particulars: membranes (250 μg) of 3T3-L1 cells endogenously expressing CB1R, [3H]SR141716A 3 nM, Pep19 0–10 μM, 1 h at 30 °C, pH 7.8, n = 3; read-out: IC50, displaces [3H]SR141716A binding. On the procedure: Membranes were prepared from 3T3-L1 cells endogenously expressing CB1R, and displacement ligand binding assays were carried out as previously described[8] with minor modifications. Briefly, membranes (250 μg) were incubated with [^3H] SR141716A (3 nM) in 50 mM Tris-Cl, pH 7.8, containing 1 mM EGTA, 5 mM MgCl2, and protease inhibitor cocktail in the presence of Pep19 (0–10 μM) for 1 h at 30 °C. At the end of the incubation period, membranes were filtered using a Brandel filtration system and GF/B filters (presoaked for 2 h at room temperature with 0.1% polyethyleneimine containing 0.2% fatty acid free BSA), filters were washed 3 times with ice-cold 50 mM Tris-Cl (pH 7.4) and bound radioactivity measured using a liquid scintillation counter.
Supplemental Figure 1. Ligand binding studies with Pep19. Membranes were prepared from 3T3L-1 cells endogenously expressing CB1R, and displacement ligand binding assays were carried out as previously described8 with minor modifications. Membranes (250 μg) were incubated with [3H]SR141716A (3 nM) in 50 mM Tris-Cl, pH 7.8, containing 1 mM EGTA, 5 mM MgCl2, and protease inhibitor cocktail in the presence of Pep19 (0-10 μM).
Values in the absence of Pep19 were taken as 100%. Data represent mean ± […]
(1 picture or pasted object on this page, not shown here)

The next data set has as its system Male C57BL/6J mice. Format: in vivo. Particulars: 0.1 or 1 mg/kg i.p. for 10 days. The procedure: Male C57BL/6J mice received a chronic treatment with Pep19 (0.1 or 1 mg/kg) or saline administrated i.p. for 10 days, once a day. The same animal was tested in the EPM and FST 30 and 35 minutes after the last injection, respectively.
Supplemental Figure 2. In vivo assays showing results of chronic treatment with Pep19 i.p. for 10 days. To further confirm the lack of in vivo effects of Pep19, it was chronically administrated for 10 days, and the behavior effects were evaluated in the tetrad cannabinoid tests, consisting of (a) catalepsy, (b) tail temperature, (c) locomotor activity and (d) hot plate test. Note that no […]
(saline) or Pep19 (one-way ANOVA followed by Tukey’s test, n = 6/group), […]
(a-d; * P<0.05). In the elevated plus maze (e, f) the anxiety-like activity of chronic administration was evaluated following i.p. injections of 0.1 or 1 mg/kg […]
groups treated with vehicle or Pep19 (one-way ANOVA followed by Tukey’s […]
locomotor (g) and speed travelled (h) in the elevated plus maze. In the forced swim test (i), chronic administration of Pep19 i.p. for 10 days produced no significant differences (one-way ANOVA followed by Tukey’s test, n = 6-7/ […]

In data set [2] the test system is Male Wistar rats. Briefly: Elevated plus maze. Format: in vivo. Particulars: 100–600 µg/kg, one hour after administration, 5 min, n = 7–9/group. The procedure:
Male Wistar rats were tested in a wooden-made elevated plus maze according to Hefner and Holmes[43] one hour after vehicle or Pep19 i.p. administration (100–600 µg/kg). The percentage of entries, time spent in the open arms, and the number of enclosed arms entries for 5 min were analyzed by the Anymaze Software (version 4.5, Stoelting, USA). Locomotor activity and speed traveled were also recorded.

The subject of another data set is DIO Wistar rats. Briefly: Tail-cuff blood pressure and heart rate in DIO rats. Format: in vivo. Particulars: oral by gavage, mean ± SEM. The procedure: Measurements of systolic blood pressure were performed at the proximal part of the tail, by a tail-cuff method using the Kent RTBP2000 system and the Kent RTB001-R data acquisition system (Kent Scientific Corporation, Torrington, CT, USA) from 9 to 11 a.m. Before measurements, rats were warmed for 10 min and three stable consecutive measurements were taken and averaged after animals have been trained for proper adaptation to the procedures.

Experimental findings from PMC5665932, “A novel peptide that improves metabolic parameters without adverse central nervous system effects” (Scientific Reports, 2017) are described below.

Where a SMILES comes first, the peptide text is derived from it.

T1 sequence (P47746 whole entry): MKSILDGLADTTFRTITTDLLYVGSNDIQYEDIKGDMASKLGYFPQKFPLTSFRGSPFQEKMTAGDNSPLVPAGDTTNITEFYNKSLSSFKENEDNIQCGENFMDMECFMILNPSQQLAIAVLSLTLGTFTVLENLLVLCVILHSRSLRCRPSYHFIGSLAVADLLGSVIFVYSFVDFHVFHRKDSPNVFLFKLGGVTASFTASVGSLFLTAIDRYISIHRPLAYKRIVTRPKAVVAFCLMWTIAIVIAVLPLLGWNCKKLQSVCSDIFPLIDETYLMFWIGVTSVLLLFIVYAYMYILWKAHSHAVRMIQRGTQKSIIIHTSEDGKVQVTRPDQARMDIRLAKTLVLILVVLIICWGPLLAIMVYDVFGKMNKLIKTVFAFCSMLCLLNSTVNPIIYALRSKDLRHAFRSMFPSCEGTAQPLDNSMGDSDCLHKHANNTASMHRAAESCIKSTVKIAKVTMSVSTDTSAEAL

Regarding `CC[C@H](C)[C@H](NC(=O)[C@@H](NC(=O)[C@@H](N)CC(=O)O)[C@@H](C)CC)C(=O)N[C@@H](C)C(=O)N[C@@H](CC(=O)O)C(=O)N[C@@H](CC(=O)O)C(=O)N[C@@H](CCC(=O)O)C(=O)N1CCC[C@H]1C(=O)N[C@@H](CC(C)C)C(=O)N[C@H](C(=O)O)[C@@H](C)O` [Pep19] (H-DIIADDEPLT-OH), the “cell toxicity, MTT reduction assay” value in the data set on HeLa cells and in the data set with HEK293T cells was “has no ability to induce cell toxicity” each time. Further, the “cannabinoid tetrad after chronic treatment” value in the data set with C57BL/6J mice (0.1 or 1 mg/kg i.p. for 10 days, once a day, tested 30 minutes after last administration) is reported as “significant differences were observed between the groups treated with vehicle”. Also, in the data set on C57BL/6J mice (0.1 or 1 mg/kg i.p., single administration), the “cannabinoid tetrad (catalepsy, hot plate, locomotor activity, tail temperature)” value was “has no effect on the cannabinoid tetrad”. In the data set with Male Wistar rats [1], the “forced swim test: time spent swimming and time spent floating” value was “produced no significant differences”. Besides, the IC50 at CB1R is approximately 4.9 pM. The “elevated plus maze after chronic treatment: anxiety-like activity, locomotor and speed travelled” value in the data set with Male C57BL/6J mice (30 minutes after the last injection, n=6-7/group) is reported as “no significant differences were observed”. Also, the “forced swim test after chronic treatment” value in the data set with Male C57BL/6J mice (35 minutes after the last injection, n = 6-7/group) is reported as “produced no”. Further, the “elevated plus maze: distance moved, speed, ratio of open/total arms entries and time spent” value with Male Wistar rats [2] is on record as “did not alter”. Further, the Heart rate with DIO Wistar rats (100 µg/Kg) was 405.3 ± 2.3 (n = 3) beats/min; in the data set on DIO Wistar rats (300 µg/Kg) it was 399.9 ± 5.8 (n = 3) beats/min; in the data set with DIO Wistar rats (600 µg/Kg) it was 408.5 ± 4.1 (n = 3) beats/min.
